One experiment addresses T1, human JAK1 (Homo sapiens, UniProt P23458).
T1 construct: The kinase domain of human JAK1 was amplified; GST (N); made in house; host or cells: Sf9 insect cells (baculovirus)
The experiment in a line: Alphascreen tyrosine kinase enzyme assay, JAK1 kinase domain. The class given is biochemical. Conditions: read-out: JAK1 IC50_nM. The method, then:
(§1) For screening purposes, compounds (in 100% DMSO) were warmed at 37 degrees for at least 20 minutes before use. A […] stock was initially made in assay buffer, where the final concentration of DMSO was 0.3%. The stocks were then diluted in 384 well Optiplates (Packard) where the final concentration of the compound was […].
The kinase domain of human JAK1 was amplified from U937mRNA using the polymerase chain reaction with the following primers: […]
The JAK1 PCR products were cloned into the pDest20 destination vector (Gibco). The JAK1 plasmid was then transformed into competent DH10Bac cells (Gibco), and the recombinant baculovirus was prepared via Sf9 insect cell transfection.
(§2) Baculovirus preparations from each of the constructs were infected into either one or five liters of Sf9 cells (Invitrogen) grown in SF-900 medium (Invitrogen) to a cell density of approximately 1-2×10^6 cells/ml. Cells were infected with virus at a MOI of 0.8-3.0. Cells were harvested and lysed. Tyrosine kinase domains were purified by affinity chromatography on a glutathione-agarose column (Scientifix Pty. Ltd. catalog #: GSH-200).
(§3) Kinase assays were performed in 384 well Optiplates (Packard) using an Alphascreen Protein Tyrosine Kinase PY100 detection kit The compounds were pre-incubated with affinity purified PTK domain in the presence of phosphotyrosine assay buffer (10 mM HEPES, pH 7.5, 100 mM MgCl2, 25 mM NaCl, […] and 0.1% Tween 20) for 20 minutes. The compounds were then incubated with substrate in the presence of ATP. The substrate used was susbtrate-1 with the sequence biotin-EGPWLEEEEEAYGWMDF-NH2 [SEQ. ID. NO. 13] (final concentration […]). For HCK 80 μm ATP was used and incubated for 60 minutes. Alphascreen phosphotyrosine acceptor beads followed by streptavidin donor beads at a concentration of 1/100 in stop buffer were added to each well under subdued light and incubated for 2-3 hours., The Alphascreen plates were read on a Packard Fusion Alpha instrument.
A general note: Bead proximity is the source of the signal in Alpha formats.

The target in a further experiment is T2, human JAK2 (Homo sapiens, UniProt O60674).
T2 construct: The kinase domain of human JAK2 was amplified; GST (N); made in house; host or cells: Sf9 insect cells (baculovirus)
T2 sequence (O60674 849-1124 limits assumed): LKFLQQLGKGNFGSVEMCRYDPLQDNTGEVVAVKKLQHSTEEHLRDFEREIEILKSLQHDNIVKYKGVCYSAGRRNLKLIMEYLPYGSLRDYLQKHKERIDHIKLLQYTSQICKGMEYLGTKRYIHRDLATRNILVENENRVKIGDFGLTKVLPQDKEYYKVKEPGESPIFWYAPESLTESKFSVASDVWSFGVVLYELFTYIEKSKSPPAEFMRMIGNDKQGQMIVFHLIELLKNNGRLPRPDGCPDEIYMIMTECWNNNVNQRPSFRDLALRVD
The experiment in a line: Alphascreen tyrosine kinase enzyme assay, JAK2 kinase domain. The class given is biochemical. To be noted: read-out: JAK2 IC50_nM. The method, then:
as §1
The kinase domain of human JAK2 was amplified from U937mRNA using the polymerase chain reaction with the following primers: […]
The JAK2 PCR products were cloned into the pDest20 destination vector (Gibco). The JAK2 plasmid was then transformed into competent DH10Bac cells (Gibco), and the recombinant baculovirus was prepared via Sf9 insect cell transfection.
as §2, §3

The target in another experiment is T3, human JAK3 (Homo sapiens, UniProt P52333).
T3 construct: The kinase domain of human JAK3 was amplified; GST (N); made in house; host or cells: Sf9 insect cells (baculovirus)
T3 sequence (P52333 822-1111 limits assumed): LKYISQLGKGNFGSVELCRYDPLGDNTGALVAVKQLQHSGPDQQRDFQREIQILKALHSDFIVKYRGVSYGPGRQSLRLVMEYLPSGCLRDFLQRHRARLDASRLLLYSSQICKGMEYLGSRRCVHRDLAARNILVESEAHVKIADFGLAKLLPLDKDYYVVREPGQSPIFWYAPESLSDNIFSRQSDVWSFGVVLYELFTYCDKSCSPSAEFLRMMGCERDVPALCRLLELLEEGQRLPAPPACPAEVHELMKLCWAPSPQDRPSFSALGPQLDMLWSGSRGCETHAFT
The experiment in a line: Alphascreen tyrosine kinase enzyme assay, JAK3 kinase domain. To be noted: read-out: JAK3 IC50_nM. It counts as biochemical. The method, then:
as §1
The kinase domain of human JAK3 was amplified from U937mRNA using the polymerase chain reaction with the following primers: […]
The JAK3 PCR products were cloned into the pDest20 destination expression vector (Gibco). The JAK3 plasmid was then transformed into competent DH10Bac cells (Gibco), and the recombinant baculovirus was prepared via Sf9 insect cell transfection.
as §2, §3

For a further experiment, the system named is CTLL2. Nature of the experiment: Cellular screening, CTLL2 cells, Alamar Blue. To be noted: Mus musculus, CTLL-2, read-out: CTLL2 IC50_nM. The class given is cell-based. The method, then:
(§4) Cell suspensions were prepared by harvesting cells from culture (the cells used in this test were in late log phase growth with high viability.) Cells were diluted in the appropriate growth medium, as described above, to 1.1× final concentration (from 50,000 cell/mL to 200,000 cell/mL, depending on cell line).
(§5) Compounds to be tested were added (10 μL, 10× final concentration) to a flat bottomed 96-well plate. The cellular suspension (90 μL per well) was then added, and the plate incubated for 40 hr at 37° C., 5% CO2. Alamar Blue 10 μL per well was added and the plates returned to the incubator for a further 4-6 hours. The plates were then read at 544 nm.
Background: Resazurin is reduced to fluorescent resorufin, in cell work by metabolically active cells.

Experiment [1] has as its target T4, BaF3 TELJAK2 cells (BafT_J2) (Homo sapiens, UniProt O60674).
T4 construct: fused on or other part: TEL (ETV6) N-terminal part, coding nucleotides 1-487, serves as the oligomerising partner; It is fused through a Sal I site to the JAK2 kinase domain and expressed from pTRE2 in BaF3 cells bearing pTET-off; P41212 (Transcription factor ETV6)
Nature of the experiment: Cellular screening, BaF3 TEL:JAK2 cells, Alamar Blue. The class given is cell-based. Conditions: 40 hr, read-out: BafT_J2 IC50_nM. The method, then:
(§6) For screening purposes, compounds were diluted in 96 well plates at a concentration of 20 μM. Plates were warmed at 37° C. for 30 minutes before the assay was performed.
The coding region encompassing nucleotides 1-487 of TEL was amplified by PCR using the oligonucleotides STEL (5′-GGAGGATCCTGATCTCTCTCGCTGTGAGAC-3′) [SEQ ID NO 14] and 3TEL (5′-AGGC GTCGACTTCTTCTTCATGGTTCTG-3′) [SEQ ID NO 15] and U937 mRNA as a template. A […] restriction site was incorporated into the STEL primer, and a Sal I restriction site was incorporated into the 3TEL primer. The regions encompassing the kinase domain of JAK2 (nucleotides 2994-3914; JAK2F 5′-ACGC GTCGACGGTGCCTTTGAAGACCGGGAT-3′ [SEQ ID NO 16]; JAK2R 5′-ATAGTTTAGCGGCCGCTCAGAATGAAGGTCATTT-3′) [SEQ ID NO 17] and JAK3 (nucleotides 2520-3469; JAK3F 5′-GAAGTCGACTATGCCTGCCAAGACCCCACGATCTT-3′) [SEQ ID NO 18] were generated by PCR using Taq DNA polymerase (Gibco/BRL) and […] as a template. A Sal I restriction site was incorporated into the forward primer of JAK2 and JAK3, a Not I site was incorporated into the JAK2 reverse primer and a Xba I site was added to the reverse primer of JAK3.
A TEL/Jak2 fusion was generated by digestion of the TELPCR product with BamH I/Sal I restriction enzymes, digestion of the JAK2 PCR product with Sal I/Not I restriction enzymes, followed by ligation and subcloning of the ligation product into the mammalian expression Vector pTRE 2 (Clontech), which was prepared by digestion with BamH I-Not I restriction enzymes, to give the TEL/Jak2 fusion plasmid pTELJAK2.
(§7) The growth factor dependant myelomonocytic cell line BaF3 bearing the pTET-off plasmid (Clontech) was transfected with either pTELJAK2 or pTELJAK3, and the transfected cells were selected for growth-factor independent cell growth. The BaF3 wild-type cells were cultured in DMEM containing 10% FCS, 10% WEHI 3B conditioned medium. The BaF3 TELJAK cells ([…]) were cultured in DMEM 10% Tet-System Approved FBS (without WEHI 3B conditioned medium).
as §4, §5

For the next experiment, the system named is BaF3 wild-type cells. The experiment in a line: Cellular screening, BaF3 wild-type cells, Alamar Blue. The class given is cell-based. Conditions: Mus musculus, 40 hr, read-out: BAF3wt IC50_nM. The method, then:
as §6, §7, §4, §5

T1 sequence (P23458 875-1153 limits assumed): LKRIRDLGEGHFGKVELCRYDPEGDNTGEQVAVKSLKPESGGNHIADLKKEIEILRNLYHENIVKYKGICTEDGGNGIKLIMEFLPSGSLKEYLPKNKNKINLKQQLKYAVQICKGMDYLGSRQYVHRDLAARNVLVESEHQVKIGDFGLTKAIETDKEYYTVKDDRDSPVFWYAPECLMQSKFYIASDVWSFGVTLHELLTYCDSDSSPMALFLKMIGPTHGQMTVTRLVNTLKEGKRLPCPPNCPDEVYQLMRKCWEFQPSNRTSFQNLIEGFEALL
T4 sequence (O60674 whole entry, change not shown, the tested form may be a part): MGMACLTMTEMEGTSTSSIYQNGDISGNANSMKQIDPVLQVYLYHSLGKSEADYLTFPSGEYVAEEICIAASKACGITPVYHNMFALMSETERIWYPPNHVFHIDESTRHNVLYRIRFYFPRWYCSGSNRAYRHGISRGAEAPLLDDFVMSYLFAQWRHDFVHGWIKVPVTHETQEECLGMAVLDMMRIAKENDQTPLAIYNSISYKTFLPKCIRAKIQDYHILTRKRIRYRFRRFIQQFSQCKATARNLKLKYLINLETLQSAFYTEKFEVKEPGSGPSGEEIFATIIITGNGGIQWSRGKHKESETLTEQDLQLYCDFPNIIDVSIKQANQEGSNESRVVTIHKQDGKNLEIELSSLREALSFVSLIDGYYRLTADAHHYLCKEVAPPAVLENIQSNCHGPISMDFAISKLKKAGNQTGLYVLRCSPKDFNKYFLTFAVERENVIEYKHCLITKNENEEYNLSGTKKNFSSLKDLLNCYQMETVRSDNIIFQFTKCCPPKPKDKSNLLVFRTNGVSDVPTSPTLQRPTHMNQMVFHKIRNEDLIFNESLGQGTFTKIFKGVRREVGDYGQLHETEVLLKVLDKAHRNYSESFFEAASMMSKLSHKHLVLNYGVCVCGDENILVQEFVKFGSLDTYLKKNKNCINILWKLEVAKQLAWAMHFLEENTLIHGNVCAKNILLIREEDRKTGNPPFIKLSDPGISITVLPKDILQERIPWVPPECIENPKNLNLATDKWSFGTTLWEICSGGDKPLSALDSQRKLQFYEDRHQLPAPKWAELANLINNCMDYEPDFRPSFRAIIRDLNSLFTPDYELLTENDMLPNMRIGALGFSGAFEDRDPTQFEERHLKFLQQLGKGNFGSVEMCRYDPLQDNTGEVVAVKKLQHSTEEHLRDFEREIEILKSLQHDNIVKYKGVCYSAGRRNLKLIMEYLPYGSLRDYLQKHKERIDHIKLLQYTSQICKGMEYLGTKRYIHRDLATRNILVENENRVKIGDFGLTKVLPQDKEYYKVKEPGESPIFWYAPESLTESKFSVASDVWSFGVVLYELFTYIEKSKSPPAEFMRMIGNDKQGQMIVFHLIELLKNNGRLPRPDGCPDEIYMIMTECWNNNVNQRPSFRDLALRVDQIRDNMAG

As for `C=CC(=O)Nc1cccc(Nc2nccc(Sc3ncccn3)n2)c1` [Compound 3, N-(3-(4-(pyrimidin-2-ylthio)pyrimidin-2-ylao)phenyl)acrylamide], the IC50 at human JAK1 was > 1000 nM; on human JAK2, > 1000 nM; on human JAK3, < 100 nM; in the experiment with CTLL2, < 5000 nM.
As for `N#CCc1cn(Cc2ccc(Sc3ccnc(Nc4ccc(N5CCOCC5)cc4)n3)cc2)cn1` [Compound 90, 2-(1-(4-(2-(4-Morpholinophenylamino)pyrimidin-4-ylthio)benzyl)-1H-imidazol-4-yl)acetonitrile], the IC50 on human JAK2 was > 1000 nM; on human JAK3 it was < 500 nM; in the experiment on BaF3 wild-type cells, < 20000 nM; in the experiment on CTLL2, < 5000 nM. Besides, the GI50 in experiment [1] is < 5000 nM.
As for `Cc1cnc(Nc2ccc(N3CCOCC3)cc2)nc1Sc1ccc(N)c(C)c1Cl` [Compound 169, 4-(4-ao-2-chloro-3-methylphenylthio)-5-methyl-N-(4-morpholinophenyl)pyrimidin-2-ae], the IC50 was > 1000 nM on human JAK1, > 1000 nM on human JAK2 and < 100 nM at human JAK3.
`Cc1cnc(Nc2ccc(N3CCOCC3)cc2)nc1Sc1ccc(Cn2cnc(C#N)c2C#N)cc1` [Compound 221, 1-(4-(5-methyl-2-(4-morpholinophenylao)pyrimidin-4-ylthio)benzyl)-1H-imidazole-4,5-dicarbonitrile]: the IC50 was > 1000 nM at human JAK2, < 500 nM at human JAK3, < 1000 nM in the experiment on BaF3 wild-type cells and < 1000 nM with CTLL2.
As for `C=CC(=O)Nc1ccc(Sc2nc(Nc3ccc(N4CCOCC4)cc3)ncc2C)c(Cl)c1` [Compound 252, N-(3-chloro-4-(5-methyl-2-(4-morpholinophenylao)pyrimidin-4-ylthio)phenyl)acrylamide], the IC50 is > 1000 nM at human JAK2, < 100 nM on human JAK3, > 20000 nM with BaF3 wild-type cells and < 1000 nM in the experiment on CTLL2. Also, the GI50 in experiment [1] was > 20000 nM.
Take `CC#CC(=O)Nc1cccc(Sc2ccnc(Nc3ccc(N4CCOCC4)cc3)n2)c1` [Compound 331, N-(3-(2-(4-morpholinophenylao)pyrimidin-4-ylthio)phenyl)but-2-ynamide]: the IC50 on human JAK2 is > 1000 nM; at human JAK3 it was < 500 nM.
Taken in the same sequence, the figures for `C=CC(=O)Nc1ccc(Sc2ccnc(Nc3cccc(S(=O)(=O)NCCC(C)C)c3)n2)cc1` [Compound 363, N-(4-(2-(3-(N-isopentylsulfamoyl)phenylao)pyrimidin-4-ylthio)phenyl)acrylamide] were > 1000 nM and < 100 nM.

These data come from US8846704B2, “Thiopyrimidine-based compounds and uses thereof” (YM Biosciences Austraila Pty Ltd, priority 2007, dated 2014).
